A short description of data set [1]: Oxygen and CO2 carrying capacity of the PFC. The format is physicochemical. The conditions noted are these: at body temperature. Here is the method: Perfluoro(tert-butylcyclohexane) can carry about 43 mL of oxygen per 100 mL of PFC, and 196 mL of CO2 per 100 mL of PFC at body temperature.
The nature of data set [2]: Physical properties of perfluoro(tert-butylcyclohexane). The format is physicochemical. An excerpt:
Physical properties of perfluoro(tert-butylcyclohexane) are as follows:
Oxycyte® is a perfluorocarbon emulsion oxygen carrier. The active ingredient in Oxycyte®, perfluoro(tert-butylcyclohexane) (C10F20, MW˜500), also known as F-tert-butylcyclohexane or “FtBu”, is a saturated alicyclic PFC. […] Oxycyte® can be used in the PFC compositions, methods and uses described herein.
Being that the PFCs are slightly lipophilic at body temperature and would help in the transport of oxygen into and removal of carbon dioxide from, e.g., periocular skin.

Each structure is given as a SMILES string.

Consider `FC(F)(F)C(C(F)(F)F)(C(F)(F)F)C1(F)C(F)(F)C(F)(F)C(F)(F)C(F)(F)C1(F)F` [perfluoro(tert-butylcyclohexane)], for which, in data set [1], the CO2 carried is given as ~196 mL of CO2 per 100 mL of PFC and the oxygen carried entry was “about 43 mL of oxygen per 100 mL of PFC”. In addition, in data set [2], the Density is reported as 1.97 g/mL, the “Kinematic Viscosity” value turned out to be 5.378 cP and the water solubility result is reported as “non-water soluble”. For the same compound, the “Vapor Pressure” value in data set [2] (@ 25° C.) is 3.8 mmHg. The “Vapor Pressure” value in data set [2] (@ 37° C.) worked out at 4.4 mmHg. The lipophilicity entry in data set [2] (at body temperature) was “only slightly lipophilic”. Further, the lipophilicity entry in data set [2] (at room temperature) was “not lipophilic”. Also, the lipophilicity result in data set [2] (temperature not stated) is listed as “non-lipophilic”.

The record behind these values is patent publication US20110230566A1, “PERFLUOROCARBON EYE CREAM FORMULATIONS” (priority 2010, published 2011).
